Experimental data reported in ChEMBL document CHEMBL4627246, “Pyroglutamide-Based P2X7 Receptor Antagonists Targeting Inflammatory Bowel Disease” (J Med Chem, 2020).

Legend:
Assay type in all cases: cell-based
[1] = test system: T47D; test: Cytotoxicity against human T47D cells assessed as effect on cell growth at 10 uM incubated for 48 hrs by sulforhodamine B assay
[2] = test system: RPMI-8226; test: Cytotoxicity against human RPMI8226 cells assessed as effect on cell growth at 10 uM incubated for 48 hrs by sulforhodamine B assay; details: rpmi-8226, 48 h
[3] = test system: MOLT-4; test: Cytotoxicity against human MOLT4 cells assessed as effect on cell growth at 10 uM incubated for 48 hrs by sulforhodamine B assay; details: molt-4, 48 h
[4] = test system: A549; test: Cytotoxicity against human A549/ATCC cells assessed as effect on cell growth at 10 uM incubated for 48 hrs by sulforhodamine B assay; details: a549, 48 h
[5] = test system: KM12; test: Cytotoxicity against human KM12 cells assessed as effect on cell growth at 10 uM incubated for 48 hrs by sulforhodamine B assay; details: km12, 48 h
[6] = test system: OVCAR-8; test: Cytotoxicity against human OVCAR8 cells assessed as effect on cell growth at 10 uM incubated for 48 hrs by sulforhodamine B assay; details: ovcar-8, 48 h
[7] = test system: NCI-H522; test: Cytotoxicity against human NCI-H522 cells assessed as effect on cell growth at 10 uM incubated for 48 hrs by sulforhodamine B assay; details: nci-h522, 48 h
[8] = test system: SK-OV-3; test: Cytotoxicity against human SKOV3 cells assessed as effect on cell growth at 10 uM incubated for 48 hrs by sulforhodamine B assay; details: sk-ov-3, 48 h
[9] = test system: SNB-19; test: Cytotoxicity against human SNB19 cells assessed as effect on cell growth at 10 uM incubated for 48 hrs by sulforhodamine B assay; details: snb-19, 48 h
[10] = test system: BT-549; test: Cytotoxicity against human BT549 cells assessed as effect on cell growth at 10 uM incubated for 48 hrs by sulforhodamine B assay; details: bt-549, 48 h
[11] = test system: HT-29; test: Cytotoxicity against human HT-29 cells assessed as effect on cell growth at 10 uM incubated for 48 hrs by sulforhodamine B assay; details: ht-29, 48 h
[12] = test system: NCI-H23; test: Cytotoxicity against human NCI-H23 cells assessed as effect on cell growth at 10 uM incubated for 48 hrs by sulforhodamine B assay; details: nci-h23, 48 h
[13] = test system: LOX IMVI; test: Cytotoxicity against human LOXIMVI cells assessed as effect on cell growth at 10 uM incubated for 48 hrs by sulforhodamine B assay
[14] = test system: OVCAR-4; test: Cytotoxicity against human OVCAR4 cells assessed as effect on cell growth at 10 uM incubated for 48 hrs by sulforhodamine B assay; details: ovcar-4, 48 h
[15] = test system: SNB-75; test: Cytotoxicity against human SNB75 cells assessed as effect on cell growth at 10 uM incubated for 48 hrs by sulforhodamine B assay; details: snb-75, 48 h
[16] = test system: IGROV-1; test: Cytotoxicity against human IGROV1 cells assessed as effect on cell growth at 10 uM incubated for 48 hrs by sulforhodamine B assay; details: igrov-1, 48 h
[17] = test system: SF-295; test: Cytotoxicity against human SF295 cells assessed as effect on cell growth at 10 uM incubated for 48 hrs by sulforhodamine B assay; details: sf-295, 48 h
[18] = test system: SK-MEL-2; test: Cytotoxicity against human SK-MEL-2 cells assessed as effect on cell growth at 10 uM incubated for 48 hrs by sulforhodamine B assay; details: sk-mel-2, 48 h
[19] = test system: SW-620; test: Cytotoxicity against human SW620 cells assessed as effect on cell growth at 10 uM incubated for 48 hrs by sulforhodamine B assay; details: sw-620, 48 h
[20] = test system: NCI-H460; test: Cytotoxicity against human NCI-H460 cells assessed as effect on cell growth at 10 uM incubated for 48 hrs by sulforhodamine B assay; details: nci-h460, 48 h

Measured: Activity

N#Cc1ccc(N2C(=O)CC[C@H]2C(=O)NCc2ccc(Cl)cc2Cl)cc1
Non-Toxic: all assays above

CCCCCCN1C(=O)[C@@H]2CCC(=O)N2C1N(C)C (stereo not given in full)
Non-Toxic: all assays above
